The values below come from article PMC7693334, “Retrospective assessment of rat liver microsomal stability at NCATS: data and QSAR models” (Scientific Reports, 2020).

A short description of the series: High-throughput single time point substrate depletion microsomal stability assay. In kind it is in vitro ADME. As to conditions: Sprague-Dawley, control compounds, mean ± S.D across 600 plates, 0.5 mg/mL rat microsomal protein, 1.0 μM drug, NADPH regeneration system, pH 7.4, 37 °C, 15 min, t1/2 capped at 30 min. Here is the method: Microsomal stability of the test articles was determined in a high-throughput format using the substrate depletion method. […] Sprague-Dawley was chosen because it is the most common strain used in drug discovery. Experiments were performed using a Freedom Evo 200 automated platform with a 96-channel (MCA96) head with EVOware software (version 3.2) (Tecan Inc., Männedorf, Switzerland). The system also includes an Inheco heating block and cooling block (Inheco, Munich, Germany). […] The assay incubation system consisted of 0.5 mg/mL of rat microsomal protein, 1.0 μM drug concentration, and NADPH regeneration system (containing 0.650 mM NADP + , 1.65 mM glucose 6-phosphate, 1.65 mM MgCl2, and 0.2 unit/mL G6PDH) in 100 mM phosphate buffer at pH 7.4. The incubation was carried out at 37 °C for 15 min. The reaction was quenched by adding 555 μL of acetonitrile containing 0.28 μM albendazole, an internal standard. After a 20-min centrifugation at 3000 rpm at 4 °C, 30 μL of the supernatant was transferred to an analysis plate and was diluted fivefold using 1:2 v/v acetonitrile/water. […] The raw data set was preprocessed to generate training and test data for the purpose of building and validating prediction models. […] Detailed steps involved in preprocessing the raw data set are provided in the supplementary information (Table S1).

In general, half-life refers to the time needed for the level to fall by half in the phase considered. For `O=C(O)Cc1ccccc1Nc1c(Cl)cccc1Cl` [Diclofenac, diclofenac], the half-life at 1 μM (rat liver microsomes) is 11.4 ± 2.6 min.

Regarding `Cc1cc(=O)n(-c2ccccc2)n1C` [Antipyrine, antipyrine], the half-life at 1 μM (microsomes) is > 30 min.

As to `NC(=O)N1c2ccccc2C=Cc2ccccc21` [Carbamazepine, carbamazepine], the half-life at 1 μM (rat liver microsomes) is > 30 min.

With `O=C1CC2(CCCC2)CC(=O)N1CCCCN1CCN(c2ncccn2)CC1` [Buspirone, buspirone], the half-life at 1 μM (rat liver microsomes) was found to be 3.8 ± 1.1 min.

Take `CC(C)NCC(O)COc1cccc2ccccc12` (centres unmarked) [Propranolol, propranolol]: where the note is “rat liver microsomes”, the half-life at 1 μM is 1.4 ± 0.3 min. This half-life at 1 μM is about 2.7-fold lower than that of the compound before.
